Measured values from the NIST ThermoML archive (doi:10.1021/je0201323).
± gives the expanded uncertainty stated by the source.

Assay: xn = mol fraction of the nth substance listed
Conditions: for mass density: 101.3 kPa, Liquid, vibrating tube; for surface tension liquid-gas: Pendant drop shape

CN(C)C=O [dimethylformamide] + Cc1ccccc1
Conditions | mass density [kg/m3] | surface tension liquid-gas [mN/m]
278.15 K, x2 = 0 | 963 ± 0.3 | –
278.15 K, x2 = 0.1502 | 949.1 ± 0.3 | –
278.15 K, x2 = 0.3 | 935.7 ± 0.3 | –
278.15 K, x2 = 0.4492 | 923.1 ± 0.3 | –
278.15 K, x2 = 0.5998 | 911 ± 0.2 | –
278.15 K, x2 = 0.7548 | 898.9 ± 0.2 | –
283.15 K, x2 = 0 | 958.3 ± 0.3 | –
283.15 K, x2 = 0.1502 | 944.4 ± 0.3 | –
283.15 K, x2 = 0.3 | 931.1 ± 0.3 | –
283.15 K, x2 = 0.4492 | 918.6 ± 0.3 | –
283.15 K, x2 = 0.5998 | 906.5 ± 0.2 | –
283.15 K, x2 = 0.7548 | 894.5 ± 0.2 | –
287.81 K, x2 = 0 | – | 36.96 ± 0.38
287.81 K, x2 = 0.1502 | – | 35.22 ± 0.36
287.81 K, x2 = 0.3 | – | 33.42 ± 0.35
287.81 K, x2 = 0.4492 | – | 32.15 ± 0.34
287.81 K, x2 = 0.5998 | – | 31.2 ± 0.33
287.81 K, x2 = 0.7548 | – | 30.17 ± 0.32
288.15 K, x2 = 0 | 953.7 ± 0.3 | –
288.15 K, x2 = 0.1502 | 939.9 ± 0.3 | –
288.15 K, x2 = 0.3 | 926.6 ± 0.3 | –
288.15 K, x2 = 0.4492 | 914.1 ± 0.3 | –
288.15 K, x2 = 0.5998 | 902 ± 0.2 | –
288.15 K, x2 = 0.7548 | 890 ± 0.2 | –
293.15 K, x2 = 0 | 949.1 ± 0.3 | –
293.15 K, x2 = 0.1502 | 935.3 ± 0.3 | –
293.15 K, x2 = 0.3 | 922 ± 0.3 | –
293.15 K, x2 = 0.4492 | 909.5 ± 0.2 | –
293.15 K, x2 = 0.5998 | 897.5 ± 0.2 | –
293.15 K, x2 = 0.7548 | 885.5 ± 0.2 | –
297.82 K, x2 = 0 | – | 35.83 ± 0.37
297.82 K, x2 = 0.1502 | – | 33.97 ± 0.35
297.82 K, x2 = 0.3 | – | 32.5 ± 0.34
297.82 K, x2 = 0.4492 | – | 31.04 ± 0.33
297.82 K, x2 = 0.5998 | – | 30.04 ± 0.32
297.82 K, x2 = 0.7548 | – | 29.17 ± 0.31
298.15 K, x2 = 0 | 944.5 ± 0.3 | –
298.15 K, x2 = 0.1502 | 930.6 ± 0.3 | –
298.15 K, x2 = 0.3 | 917.4 ± 0.3 | –
298.15 K, x2 = 0.4492 | 905 ± 0.2 | –
298.15 K, x2 = 0.5998 | 892.9 ± 0.2 | –
298.15 K, x2 = 0.7548 | 880.9 ± 0.2 | –
303.15 K, x2 = 0 | 939.9 ± 0.3 | –
303.15 K, x2 = 0.1502 | 926.1 ± 0.3 | –
303.15 K, x2 = 0.3 | 912.9 ± 0.2 | –
303.15 K, x2 = 0.4492 | 900.4 ± 0.2 | –
303.15 K, x2 = 0.5998 | 888.4 ± 0.2 | –
303.15 K, x2 = 0.7548 | 876.4 ± 0.2 | –
307.86 K, x2 = 0 | – | 34.65 ± 0.36
307.86 K, x2 = 0.1502 | – | 32.84 ± 0.34
307.86 K, x2 = 0.3 | – | 31.2 ± 0.33
307.86 K, x2 = 0.4492 | – | 29.86 ± 0.32
307.86 K, x2 = 0.5998 | – | 28.98 ± 0.31
307.86 K, x2 = 0.7548 | – | 28.06 ± 0.3
308.15 K, x2 = 0 | 935.4 ± 0.3 | –
308.15 K, x2 = 0.1502 | 921.5 ± 0.3 | –
308.15 K, x2 = 0.3 | 908.3 ± 0.2 | –
308.15 K, x2 = 0.4492 | 895.9 ± 0.2 | –
308.15 K, x2 = 0.5998 | 883.8 ± 0.2 | –
308.15 K, x2 = 0.7548 | 871.8 ± 0.2 | –
313.15 K, x2 = 0 | 930.9 ± 0.3 | –
313.15 K, x2 = 0.1502 | 917 ± 0.2 | –
313.15 K, x2 = 0.3 | 903.8 ± 0.2 | –
313.15 K, x2 = 0.4492 | 891.3 ± 0.2 | –
313.15 K, x2 = 0.5998 | 879.2 ± 0.2 | –
313.15 K, x2 = 0.7548 | 867.2 ± 0.2 | –
317.86 K, x2 = 0 | – | 33.37 ± 0.35
317.86 K, x2 = 0.1502 | – | 31.7 ± 0.33
317.86 K, x2 = 0.3 | – | 30.21 ± 0.32
317.86 K, x2 = 0.4492 | – | 28.77 ± 0.31
317.86 K, x2 = 0.5998 | – | 27.61 ± 0.3
317.86 K, x2 = 0.7548 | – | 26.85 ± 0.29
318.15 K, x2 = 0 | 926.3 ± 0.3 | –
318.15 K, x2 = 0.1502 | 912.4 ± 0.2 | –
318.15 K, x2 = 0.3 | 899.2 ± 0.2 | –
318.15 K, x2 = 0.4492 | 886.7 ± 0.2 | –
318.15 K, x2 = 0.5998 | 874.6 ± 0.2 | –
318.15 K, x2 = 0.7548 | 862.5 ± 0.2 | –
323.15 K, x2 = 0 | 921.7 ± 0.3 | –
323.15 K, x2 = 0.1502 | 907.8 ± 0.2 | –
323.15 K, x2 = 0.3 | 894.6 ± 0.2 | –
323.15 K, x2 = 0.4492 | 882 ± 0.2 | –
323.15 K, x2 = 0.5998 | 869.9 ± 0.2 | –
323.15 K, x2 = 0.7548 | 857.9 ± 0.2 | –
327.88 K, x2 = 0 | – | 32.03 ± 0.34
327.88 K, x2 = 0.1502 | – | 30.5 ± 0.33
327.88 K, x2 = 0.3 | – | 29.04 ± 0.32
327.88 K, x2 = 0.4492 | – | 27.62 ± 0.31
327.88 K, x2 = 0.5998 | – | 26.59 ± 0.31
327.88 K, x2 = 0.7548 | – | 25.7 ± 0.3
328.15 K, x2 = 0 | 917.9 ± 0.2 | –
328.15 K, x2 = 0.1502 | 903.3 ± 0.2 | –
328.15 K, x2 = 0.3 | 890.1 ± 0.2 | –
328.15 K, x2 = 0.4492 | 877.5 ± 0.2 | –
328.15 K, x2 = 0.5998 | 865.3 ± 0.2 | –
328.15 K, x2 = 0.7548 | 853.2 ± 0.2 | –
333.15 K, x2 = 0 | 913.2 ± 0.2 | –
333.15 K, x2 = 0.1502 | 899 ± 0.2 | –
333.15 K, x2 = 0.3 | 885.7 ± 0.2 | –
333.15 K, x2 = 0.4492 | 873 ± 0.2 | –
333.15 K, x2 = 0.5998 | 860.7 ± 0.2 | –
333.15 K, x2 = 0.7548 | 848.5 ± 0.2 | –
